In ChEMBL document CHEMBL4808177, “Use of Intramolecular 1,5-Sulfur-Oxygen and 1,5-Sulfur-Halogen Interactions in the Design of N-Methyl-5-aryl-N-(2,2,6,6-tetramethylpiperidin-4-yl)-1,3,4-thiadiazol-2-amine SMN2 Splicing Modulators” (J Med Chem, 2021):
Values after ≈ are worked out from the molar mass of the structure shown.

Key:
[1] = Solubility of the compound at pH 6.8 by high-throughput miniaturized shake flask solubility assay; assay type: physicochemical; settings: buffer
[2] = Intrinsic clearance in rat liver microsomes; assay type: ADME, Microsome; settings: read-out: CLH
[3] = Volume of distribution at steady state in Sprague-Dawley rat at 1 mg/kg, iv and 3 mg/kg, po measured up to 7 hrs by HPLC-MS/MS analysis; assay type: ADME, organism-based; settings: in vivo, read-out: Vdss
[4] = Cmax in Sprague-Dawley rat at 1 mg/kg, iv and 3 mg/kg, po measured up to 7 hrs by HPLC-MS/MS analysis; assay type: ADME, organism-based; design: dose 3 mg/kg, time <=7; settings: in vivo
[5] = Apparent permeability across apical to basolateral side in human Caco-2 cells; assay type: ADME, cell-based
[6] = Modulation of SMN2 splicing activity in myoblast cell line derived from the SMNdelta7 mouse model assessed as increase in SMN level treated for 24 hrs by ELISA relative to control; assay type: functional, Primary myoblast
[7] = Apparent permeability across basolateral to apical side in human Caco-2 cells; assay type: ADME, cell-based
[8] = Half life in Sprague-Dawley rat at 1 mg/kg, iv and 3 mg/kg, po measured up to 7 hrs by HPLC-MS/MS analysis; assay type: ADME, organism-based; settings: in vivo
[9] = Modulation of SMN2 splicing in myoblast cell line derived from the SMNdelta7 mouse model assessed as increase in SMN level measured as fold activation treated for 24 hrs by ELISA; assay type: functional, Primary myoblast
[10] = AUC (extrapolated) in Sprague-Dawley rat at 3 mg/kg, po measured up to 7 hrs by HPLC-MS/MS analysis; assay type: ADME, organism-based; design: route oral, dose 3 mg/kg, time <=7; settings: in vivo
[11] = Clearance in Sprague-Dawley rat at 1 mg/kg, iv and 3 mg/kg, po measured up to 7 hrs by HPLC-MS/MS analysis; assay type: ADME, organism-based; settings: in vivo
[12] = Drug uptake in Sprague-Dawley rat brain at 3 mg/kg, po measured after 7 hrs by HPLC-MS/MS analysis; assay type: ADME, organism-based; settings: read-out: Drug uptake
[13] = Apparent permeability from apical to basolateral side in MDCK-MDR1 cells; assay type: ADME, cell-based, Canis lupus familiaris; settings: dog
[14] = Apparent permeability from basolateral to apical side in MDCK-MDR1 cells; assay type: ADME, cell-based, Canis lupus familiaris; settings: dog
[15] = Drug uptake in SMN C/+ allele mouse plasma at 50 mg/kg, po measured after 4 hrs; assay type: ADME, organism-based
[16] = In vivo modulation of SMN2 splicing activity in SMN C/+ allele mouse model assessed as fold increase in full length SMN protein level in brain at 50 mg/kg, po once daily for 5 days relative to control; assay type: functional; settings: time 5 day
[17] = Drug uptake in SMN C/+ allele mouse brain at 50 mg/kg, po measured after 4 hrs; assay type: ADME, organism-based; settings: read-out: Drug uptake
[18] = Intrinsic clearance in mouse liver microsomes; assay type: ADME, Microsome; settings: read-out: CLH

SMILES	solubility thermodynamic [1] [µM]	microsomal CLint [2] [µL/min/mg]	fold change (FC) [6]	EC50 [9] [nM]	also measured
CN(c1ccc(-c2cc3ccccc3s2)nn1)C1CC(C)(C)NC(C)(C)C1	980 (≈ 373 µg/mL)	23			
CN(c1nnc(-c2ccc(-c3ccn(C)c(=O)c3)cc2O)s1)C1CC(C)(C)NC(C)(C)C1			3.4	61	Vd [3]: 10.7 L/kg; Cmax [4]: 38 nM; Papp A→B [5]: 3.7 ×10⁻⁶ cm/s; Papp B→A [7]: 6.8 ×10⁻⁶ cm/s; half-life [8]: 1.3 h; AUC at 7 h [10]: 0.227 µM·h; clearance [11]: 163 mL/min/kg
CN(c1nnc(-c2cc(F)c(-c3cn[nH]c3)cc2F)s1)C1CC(C)(C)NC(C)(C)C1	122 (≈ 52.8 µg/mL)	48	3.1	20	concentration at 7 h [12]: 141 nM; Papp A→B [13]: 3 ×10⁻⁶ cm/s; Papp B→A [14]: 16 ×10⁻⁶ cm/s
CN(c1nnc(-c2sc3ccc(C#N)cc3c2Cl)s1)C1CC(C)(C)NC(C)(C)C1	51 (≈ 22.7 µg/mL)	< 25	2.5	92	
CN(c1nnc(-c2sc3ccccc3c2Cl)s1)C1CC(C)(C)NC(C)(C)C1	240 (≈ 101 µg/mL)	20	2.8	530	
CN(c1nnc(-c2ccc(-c3cn[nH]c3)c(F)c2F)s1)C1CC(C)(C)NC(C)(C)C1	48 (≈ 20.8 µg/mL)	46	3	33	concentration at 4 h [15]: 3600 nM; fold change (FC) [16]: 1.6; concentration at 7 h [12]: 498 nM; Papp A→B [13]: 3 ×10⁻⁶ cm/s; Papp B→A [14]: 8 ×10⁻⁶ cm/s; concentration at 4 h [17]: 2500 nM
CN(c1nnc(-c2ccc(-n3cccn3)cc2O)s1)C1CC(C)(C)NC(C)(C)C1			2.8	170	
COc1cc(-c2cn[nH]c2)ccc1-c1nnc(N(C)C2CC(C)(C)NC(C)(C)C2)s1			2.9	38	
COc1cc(-c2cnn(C)c2)ccc1-c1nnc(N(C)C2CC(C)(C)NC(C)(C)C2)s1			2.5	44	
CN(c1nnc(-c2ccc(-c3cn[nH]c3)cc2F)s1)C1CC(C)(C)NC(C)(C)C1	> 1000	59	3.1	43	concentration at 7 h [12]: 66 nM; Papp A→B [13]: 4 ×10⁻⁶ cm/s; Papp B→A [14]: 15 ×10⁻⁶ cm/s
Cc1cc(-c2ccn(C)c(=O)c2)ccc1-c1nnc(N(C)C2CC(C)(C)NC(C)(C)C2)s1			2.6	1100	
CN(c1nnc(-c2ccc(-c3cn[nH]c3)cc2Cl)s1)C1CC(C)(C)NC(C)(C)C1	44000 (≈ 19000 µg/mL)	24	2.5	34	concentration at 7 h [12]: 240 nM; Papp A→B [13]: 3 ×10⁻⁶ cm/s; Papp B→A [14]: 12 ×10⁻⁶ cm/s
COc1cc(-c2ccn(C)c(=O)c2)ccc1-c1nnc(N(C)C2CC(C)(C)NC(C)(C)C2)s1			3.2	130	
CN(c1nnc(-c2ccc(-c3ccn(C)c(=O)c3)cc2OC(F)(F)F)s1)C1CC(C)(C)NC(C)(C)C1			2.2	900	
CN(c1nnc(-c2c(O)cc(-c3cn[nH]c3)cc2Cl)s1)C1CC(C)(C)NC(C)(C)C1	220 (≈ 98.3 µg/mL)		2.5	3	microsomal CLint [18]: 116 µL/min/mg
CN(c1nnc(-c2cc(F)c(-c3cn[nH]c3)cc2Cl)s1)C1CC(C)(C)NC(C)(C)C1	34 (≈ 15.3 µg/mL)	54	3.2	48	concentration at 7 h [12]: 185 nM; Papp A→B [13]: 4 ×10⁻⁶ cm/s; Papp B→A [14]: 23 ×10⁻⁶ cm/s
CN(c1nnc(-c2ccc(-c3cn[nH]c3)cc2O)s1)C1CC(C)(C)NC(C)(C)C1			2.5	400	
CN(c1nnc(-c2c(O)cc(-c3cn[nH]c3)cc2F)s1)C1CC(C)(C)NC(C)(C)C1			2.6	6	microsomal CLint [18]: 50 µL/min/mg; solubility [1]: Insoluble; Papp A→B [13]: 10 ×10⁻⁶ cm/s; Papp B→A [14]: 41 ×10⁻⁶ cm/s
CN(c1nnc(-c2ccc(-c3cnn(C)c3)cc2O)s1)C1CC(C)(C)NC(C)(C)C1			3.1	32	Vd [3]: 7 L/kg; Cmax [4]: 50 nM; Papp A→B [5]: 2.4 ×10⁻⁶ cm/s; Papp B→A [7]: 2.5 ×10⁻⁶ cm/s; half-life [8]: 2 h; AUC at 7 h [10]: 0.554 µM·h; clearance [11]: 71 mL/min/kg
CN(c1nnc(-c2ccc(C#N)cc2O)s1)C1CC(C)(C)NC(C)(C)C1			1.9	8800	
CN(c1nnc(-c2ccc(-c3cnn(C)c3)cn2)s1)C1CC(C)(C)NC(C)(C)C1			2.3	680	
CN(c1nnc(-c2ccc(-c3cnn(C)c3)cc2C(F)(F)F)s1)C1CC(C)(C)NC(C)(C)C1			1.3	> 30000	
COc1cc(C#N)ccc1-c1nnc(N(C)C2CC(C)(C)NC(C)(C)C2)s1			2.2	1000	
CN(c1nnc(-c2ccc(-n3cccn3)cc2)s1)C1CC(C)(C)NC(C)(C)C1			2.8	1100	
CN(c1nnc(-c2cc(-n3cccn3)ccc2O)s1)C1CC(C)(C)NC(C)(C)C1			2.3	1000	
CN(c1nnc(-c2c(O)cc(-c3cn[nH]c3)c(F)c2F)s1)C1CC(C)(C)NC(C)(C)C1	150 (≈ 67.3 µg/mL)		2.7	3	microsomal CLint [18]: 67 µL/min/mg; Papp A→B [13]: 8 ×10⁻⁶ cm/s; Papp B→A [14]: 23 ×10⁻⁶ cm/s
CN(c1nnc(-c2cc3ccccc3s2)s1)C1CC(C)(C)NC(C)(C)C1	> 1000	< 3	1.7	4470	
CN(c1nnc(-c2cc3cc(C#N)ccc3s2)s1)C1CC(C)(C)NC(C)(C)C1	170 (≈ 70 µg/mL)	12	2.7	540	
COc1cc(-n2cccn2)ccc1-c1nnc(N(C)C2CC(C)(C)NC(C)(C)C2)s1			2.5	62	Vd [3]: 10.9 L/kg; Cmax [4]: 221 nM; Papp A→B [5]: 13.8 ×10⁻⁶ cm/s; Papp B→A [7]: 6.9 ×10⁻⁶ cm/s; half-life [8]: 1.9 h; AUC at 7 h [10]: 0.895 µM·h; clearance [11]: 72 mL/min/kg
